What was measured:
Experiment in all cases: relative viability (nuclei count vs DMSO), 5 days (fraction); higher = more cells survive
[1] = compound: CC[C@H](C)N1C=C(C2=C(C=C(C=C21)C3=CN=C(C=C3)N4CCNCC4)C(=O)NCC5=C(C=C(NC5=O)C)C)C [GSK126] + O=C(CCCCCCC(=O)Nc1ccccc1)NO [Vorinostat] (partner 1 µM)
Procedure, shortened: (§1)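 A single step with final 0.05% Triton X-100, 1% formaldehyde and 1 ug/ml Hoechst fixed the cells and stained nuclei 5 days after treatment. Lung cancer cell lines in 1536-well plates had been treated by pin tool the day after seeding with one drug alone or a fixed anchor-drug dose plus five library-drug doses (not always all listed) in √10 steps, and nuclei were counted on 4× images. Relative viability is the ratio of nuclei in treated wells to nuclei in vehicle wells, taken as the median of duplicate plates.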

[2] = compound: C1CC(C1)(C(=O)O)C(=O)O.[NH2-].[NH2-].[Pt+2] [Carboplatin] + Cc1nc(NC(=O)N2CCC[C@H]2C(N)=O)sc1-c1ccnc(C(C)(C)C(F)(F)F)c1 [Alpelisib] (partner 2 µM)
Procedure, shortened: as §1

[3] = compound: CC[C@H](C)N1C=C(C2=C(C=C(C=C21)C3=CN=C(C=C3)N4CCNCC4)C(=O)NCC5=C(C=C(NC5=O)C)C)C [GSK126] + CC(=O)Nc1cccc(-n2c(=O)n(C3CC3)c(=O)c3c(Nc4ccc(I)cc4F)n(C)c(=O)c(C)c32)c1 [Trametinib] (partner 0.02 µM)
Procedure, shortened: as §1

[4] = compound: NS(=O)(=O)OC[C@@H]1C[C@@H](n2ccc3c(N[C@H]4CCc5ccccc54)ncnc32)C[C@@H]1O [MLN4924] + Cc1nc(Nc2ncc(C(=O)Nc3c(C)cccc3Cl)s2)cc(N2CCN(CCO)CC2)n1 [Dasatinib] (partner 0.075 µM)
Procedure, shortened: as §1

## NCI-H650
[1]; first compound 0.08 µM
  relative viability: 0.482
[1]; first compound 0.253 µM
  relative viability: 0.412
[1]; first compound 0.8 µM
  relative viability: 0.411
[1]; first compound 2.53 µM
  relative viability: 0.403
[1]; first compound 8 µM
  relative viability: 0.487
[2]; first compound 0.08 µM
  relative viability: 1.13
[2]; first compound 0.253 µM
  relative viability: 1
[2]; first compound 0.8 µM
  relative viability: 1.06
[2]; first compound 2.53 µM
  relative viability: 0.856
[2]; first compound 8 µM
  relative viability: 0.757
[3]; first compound 0.08 µM
  relative viability: 1.02
[3]; first compound 0.253 µM
  relative viability: 0.891
[3]; first compound 0.8 µM
  relative viability: 0.919
[3]; first compound 2.53 µM
  relative viability: 0.945
[3]; first compound 8 µM
  relative viability: 0.994
[4]; first compound 0.04 µM
  relative viability: 0.407
[4]; first compound 0.1265 µM
  relative viability: 0.418
[4]; first compound 0.4 µM
  relative viability: 0.236
[4]; first compound 1.265 µM
  relative viability: 0.215
[4]; first compound 4 µM
  relative viability: 0.193

## NCI-H2170
[1]; first compound 0.08 µM
  relative viability: 0.914
[1]; first compound 0.253 µM
  relative viability: 1.01
[1]; first compound 0.8 µM
  relative viability: 0.748
[1]; first compound 2.53 µM
  relative viability: 0.799
[1]; first compound 8 µM
  relative viability: 0.772
[2]; first compound 0.08 µM
  relative viability: 0.882
[2]; first compound 0.253 µM
  relative viability: 0.852
[2]; first compound 0.8 µM
  relative viability: 0.801
[2]; first compound 2.53 µM
  relative viability: 0.794
[2]; first compound 8 µM
  relative viability: 0.636
[3]; first compound 0.08 µM
  relative viability: 1.05
[3]; first compound 0.253 µM
  relative viability: 0.964
[3]; first compound 0.8 µM
  relative viability: 0.893
[3]; first compound 2.53 µM
  relative viability: 0.891
[3]; first compound 8 µM
  relative viability: 1.03
[4]; first compound 0.04 µM
  relative viability: 0.866
[4]; first compound 0.1265 µM
  relative viability: 0.767
[4]; first compound 0.4 µM
  relative viability: 0.264
[4]; first compound 1.265 µM
  relative viability: 0.127
[4]; first compound 4 µM
  relative viability: 0.129

## LC-2-ad
[1]; first compound 0.08 µM
  relative viability: 0.767
[1]; first compound 0.253 µM
  relative viability: 0.667
[1]; first compound 0.8 µM
  relative viability: 0.704
[1]; first compound 2.53 µM
  relative viability: 0.712
[1]; first compound 8 µM
  relative viability: 0.63
[2]; first compound 0.08 µM
  relative viability: 0.876
[2]; first compound 0.253 µM
  relative viability: 0.906
[2]; first compound 0.8 µM
  relative viability: 0.88
[2]; first compound 2.53 µM
  relative viability: 0.882
[2]; first compound 8 µM
  relative viability: 0.786
[3]; first compound 0.08 µM
  relative viability: 0.926
[3]; first compound 0.253 µM
  relative viability: 0.9
[3]; first compound 0.8 µM
  relative viability: 0.91
[3]; first compound 2.53 µM
  relative viability: 0.885
[3]; first compound 8 µM
  relative viability: 0.957
[4]; first compound 0.04 µM
  relative viability: 0.551
[4]; first compound 0.1265 µM
  relative viability: 0.408
[4]; first compound 0.4 µM
  relative viability: 0.498
[4]; first compound 1.265 µM
  relative viability: 0.144
[4]; first compound 4 µM
  relative viability: 0.2

## NCI-H322M
[1]; first compound 0.08 µM
  relative viability: 0.838
[1]; first compound 0.253 µM
  relative viability: 0.884
[1]; first compound 0.8 µM
  relative viability: 0.866
[1]; first compound 2.53 µM
  relative viability: 0.939
[1]; first compound 8 µM
  relative viability: 0.939
[2]; first compound 0.08 µM
  relative viability: 0.74
[2]; first compound 0.253 µM
  relative viability: 0.574
[2]; first compound 0.8 µM
  relative viability: 0.605
[2]; first compound 2.53 µM
  relative viability: 0.739
[2]; first compound 8 µM
  relative viability: 0.701
[3]; first compound 0.08 µM
  relative viability: 0.499
[3]; first compound 0.253 µM
  relative viability: 0.478
[3]; first compound 0.8 µM
  relative viability: 0.482
[3]; first compound 2.53 µM
  relative viability: 0.548
[3]; first compound 8 µM
  relative viability: 0.552
[4]; first compound 0.04 µM
  relative viability: 0.311
[4]; first compound 0.1265 µM
  relative viability: 0.655
[4]; first compound 0.4 µM
  relative viability: 0.693
[4]; first compound 1.265 µM
  relative viability: 0.27
[4]; first compound 4 µM
  relative viability: 0.289

## LCLC-97TM1
[1]; first compound 0.08 µM
  relative viability: 0.771
[1]; first compound 0.253 µM
  relative viability: 0.8
[1]; first compound 0.8 µM
  relative viability: 0.717
[1]; first compound 2.53 µM
  relative viability: 0.812
[1]; first compound 8 µM
  relative viability: 0.691
[2]; first compound 0.08 µM
  relative viability: 0.262
[2]; first compound 0.8 µM
  relative viability: 0.25
[2]; first compound 2.53 µM
  relative viability: 0.256
[2]; first compound 8 µM
  relative viability: 0.199
[3]; first compound 0.08 µM
  relative viability: 0.205
[3]; first compound 0.253 µM
  relative viability: 0.2
[3]; first compound 0.8 µM
  relative viability: 0.204
[3]; first compound 2.53 µM
  relative viability: 0.211
[3]; first compound 8 µM
  relative viability: 0.209
[4]; first compound 0.04 µM
  relative viability: 1.01
[4]; first compound 0.1265 µM
  relative viability: 0.683
[4]; first compound 0.4 µM
  relative viability: 0.767
[4]; first compound 1.265 µM
  relative viability: 0.113
[4]; first compound 4 µM
  relative viability: 0.104

## NCI-H596
[1]; first compound 0.08 µM
  relative viability: 0.613
[1]; first compound 0.253 µM
  relative viability: 0.55
[1]; first compound 0.8 µM
  relative viability: 0.746
[1]; first compound 2.53 µM
  relative viability: 0.577
[1]; first compound 8 µM
  relative viability: 0.502
[2]; first compound 0.08 µM
  relative viability: 0.475
[2]; first compound 0.253 µM
  relative viability: 0.574
[2]; first compound 0.8 µM
  relative viability: 0.458
[2]; first compound 2.53 µM
  relative viability: 0.423
[2]; first compound 8 µM
  relative viability: 0.445
[3]; first compound 0.08 µM
  relative viability: 0.803
[3]; first compound 0.253 µM
  relative viability: 0.687
[3]; first compound 0.8 µM
  relative viability: 0.697
[3]; first compound 2.53 µM
  relative viability: 0.862
[3]; first compound 8 µM
  relative viability: 0.733
[4]; first compound 0.04 µM
  relative viability: 0.623
[4]; first compound 0.1265 µM
  relative viability: 0.594
[4]; first compound 1.265 µM
  relative viability: 0.644
[4]; first compound 4 µM
  relative viability: 0.744

## NCI-H1944
[1]; first compound 0.08 µM
  relative viability: 0.656
[1]; first compound 0.253 µM
  relative viability: 0.524
[1]; first compound 0.8 µM
  relative viability: 0.601
[1]; first compound 2.53 µM
  relative viability: 0.566
[1]; first compound 8 µM
  relative viability: 0.594
[2]; first compound 0.08 µM
  relative viability: 0.98
[2]; first compound 0.253 µM
  relative viability: 0.857
[2]; first compound 0.8 µM
  relative viability: 0.813
[2]; first compound 2.53 µM
  relative viability: 0.701
[2]; first compound 8 µM
  relative viability: 0.643
[3]; first compound 0.08 µM
  relative viability: 0.415
[3]; first compound 0.253 µM
  relative viability: 0.373
[3]; first compound 0.8 µM
  relative viability: 0.435
[3]; first compound 2.53 µM
  relative viability: 0.443
[3]; first compound 8 µM
  relative viability: 0.413
[4]; first compound 0.04 µM
  relative viability: 0.218
[4]; first compound 0.1265 µM
  relative viability: 0.232
[4]; first compound 0.4 µM
  relative viability: 0.23
[4]; first compound 1.265 µM
  relative viability: 0.155
[4]; first compound 4 µM
  relative viability: 0.133

## NCI-H1755
[1]; first compound 0.08 µM
  relative viability: 0.8
[1]; first compound 0.253 µM
  relative viability: 0.719
[1]; first compound 0.8 µM
  relative viability: 0.74
[1]; first compound 2.53 µM
  relative viability: 0.794
[1]; first compound 8 µM
  relative viability: 0.58
[2]; first compound 0.08 µM
  relative viability: 0.928
[2]; first compound 0.253 µM
  relative viability: 0.894
[2]; first compound 0.8 µM
  relative viability: 0.97
[2]; first compound 2.53 µM
  relative viability: 0.932
[2]; first compound 8 µM
  relative viability: 0.894
[3]; first compound 0.08 µM
  relative viability: 0.771
[3]; first compound 0.253 µM
  relative viability: 0.736
[3]; first compound 0.8 µM
  relative viability: 0.777
[3]; first compound 2.53 µM
  relative viability: 0.826
[3]; first compound 8 µM
  relative viability: 0.793
[4]; first compound 0.04 µM
  relative viability: 0.417
[4]; first compound 0.1265 µM
  relative viability: 0.464
[4]; first compound 0.4 µM
  relative viability: 0.463
[4]; first compound 1.265 µM
  relative viability: 0.237
[4]; first compound 4 µM
  relative viability: 0.221

## H3255
[1]; first compound 0.08 µM
  relative viability: 0.821
[1]; first compound 0.253 µM
  relative viability: 0.865
[1]; first compound 0.8 µM
  relative viability: 0.842
[1]; first compound 2.53 µM
  relative viability: 0.817
[1]; first compound 8 µM
  relative viability: 0.794
[2]; first compound 0.08 µM
  relative viability: 0.685
[2]; first compound 0.253 µM
  relative viability: 0.698
[2]; first compound 0.8 µM
  relative viability: 0.673
[2]; first compound 2.53 µM
  relative viability: 0.657
[2]; first compound 8 µM
  relative viability: 0.575
[3]; first compound 0.08 µM
  relative viability: 0.685
[3]; first compound 0.253 µM
  relative viability: 0.628
[3]; first compound 0.8 µM
  relative viability: 0.639
[3]; first compound 2.53 µM
  relative viability: 0.546
[3]; first compound 8 µM
  relative viability: 0.571
[4]; first compound 0.04 µM
  relative viability: 0.314
[4]; first compound 0.1265 µM
  relative viability: 0.349
[4]; first compound 0.4 µM
  relative viability: 0.296
[4]; first compound 1.265 µM
  relative viability: 0.256
[4]; first compound 4 µM
  relative viability: 0.235

## NCI-H23
[1]; first compound 0.08 µM
  relative viability: 0.936
[1]; first compound 0.253 µM
  relative viability: 0.627
[1]; first compound 0.8 µM
  relative viability: 0.639
[1]; first compound 2.53 µM
  relative viability: 0.632
[1]; first compound 8 µM
  relative viability: 0.527
[2]; first compound 0.08 µM
  relative viability: 0.659
[2]; first compound 0.253 µM
  relative viability: 0.75
[2]; first compound 0.8 µM
  relative viability: 0.623
[2]; first compound 2.53 µM
  relative viability: 0.681
[2]; first compound 8 µM
  relative viability: 0.635
[3]; first compound 0.08 µM
  relative viability: 0.434
[3]; first compound 0.253 µM
  relative viability: 0.378
[3]; first compound 0.8 µM
  relative viability: 0.407
[3]; first compound 2.53 µM
  relative viability: 0.551
[3]; first compound 8 µM
  relative viability: 0.391
[4]; first compound 0.04 µM
  relative viability: 0.722
[4]; first compound 0.1265 µM
  relative viability: 0.785
[4]; first compound 0.4 µM
  relative viability: 0.681
[4]; first compound 1.265 µM
  relative viability: 0.335
[4]; first compound 4 µM
  relative viability: 0.208

From the supplement of paper PMC10307832
